Consider one sequence from patent publication US8138148B2, “GDNF derived peptides” (Copenhagen University, priority 2005, dated 2012).

One experiment concerns hippocampal neurons. The experiment in a line: Neurite outgrowth assay, co-cultures of hippocampal neurons on control fibroblasts or NCAM-expressing fibroblasts. It is filed as cell-based, rat. The settings on record: 24 hours. As to the method:
Two different versions of the neurite outgrowth assay were used in this study, monocultures and co-cultures.
In monocultures, neurons are grown directly on plastic and the only neuritogenic stimulus is the one presented by the added substance. In co-cultures, neurons are grown on top of a confluent monolayer of fibroblasts expressing NCAM-140 (LBN110) or NCAM-negative control fibroblasts (LVN212). NCAM on the neurons interact with NCAM on LBN110 cells thereby stimulating neurite outgrowth from the neurons. This system thus permits the study of NCAM-NCAM interactions and interactions between NCAM and other molecules.
For all experiments cells were grown in neurobasal medium with supplements as described above in a final volume of 300 μl/well in 8-well LabTek® Permanox Chamber slides or 500 μl/well in 4-well LabTek® Permanox Chamber slides.
For cocultures, L-cells were seeded in 8-well LabTek® Permanox Chamber slides at a density of 100.000 cells/well, except for transfection experiments where cells were seeded in 4-well LabTek® Permanox Chamber slides at a density of 200.000 cells/well. L-cells were grown for 24 hours in DMEM supplemented with 10% (v/v) FCS, 1% (v/v) glutamax, 100 U/ml penicillin, 100 μg/ml streptomycin, 2.5 μg/ml fungizone, and 567 μg/ml neomycin (G418), followed by washing twice in neurobasal medium with supplements before primary hippocampal neurons were seeded at a density of 7.000 cells/well in 8-well slides or 20.000 cells/well in 4-well slides.
To evaluate the effect peptides on neurite outgrowth, GDNF and the peptides, G1, G2, G3, A1, A2, A3, N1, N2 and N3 were diluted to the appropriate concentrations and added to the neurons approximately 10 minutes after seeding. Medium alone was added to controls, and cells were incubated for 24 hours.
Neurite outgrowth experiments were terminated after the stated time by fixating the cells. To visualize neurons and their neurites, immunostaining of GAP-43 was performed. This staining is specific for neurons. Transfected cells and their neurites should be visible without immunostaining due to the fluorescence emitted by GFP. […] GFP is a cytoplasmic protein, and since thin neurites only contain a small volume of cytoplasm, GFP is only found in small amounts in most neurites. Therefore, a double-staining protocol, where cells were immunostained against GFP and GAP-43, was adopted. This protocol allowed the identification of transfected cells on the basis of GFP-staining in combination with visualization of neurites based on GAP-43-staining.
Without prior removal of the medium 300 μl/well (8-well slides) or 500 μl/well (4-well slides) of a PBS solution containing 0.4 mM CaCl2, 0.05 M sucrose and 8% (v/v) formaldehyde was added to the cultures for 20 minutes. Cells were then washed 10 minutes in PBS followed by washing in PBS with 1% (w/v) BSA for 20 minutes, after which cells were incubated with primary antibodies overnight at 4° C.
Rabbit anti-rat GAP-43 antibodies were diluted 1:1000 for staining of untransfected cells and 1:2000 for staining of transfected cells. Mouse anti-GFP antibodies were diluted 1:1000. Antibodies were diluted in a PBS solution containing 7% (v/v) FCS to block unspecific binding, 50 mM glycine to block formaldehyde used for fixation, 0.2% (v/v) saponin to permeabilize cells, and 0.02% (v/v) NaN3 to preserve antibodies for later use.
The next day cells were washed 10 minutes in PBS followed by washing in PBS with 1% (w/v) BSA for 20 minutes. Cells were then incubated with secondary antibodies diluted in PBS with 1% (w/v) BSA for one hour at room temperature. Goat anti-rabbit IgG antibodies conjugated to Alexa 488 were diluted 1:1000 for untransfected cells and 1:2000 for transfected cells. Goat anti-mouse IgG antibodies conjugated to Alexa 546 were diluted 1:1000. Finally cells were washed 3×7 minutes in PBS and mounted with fluorescent mounting medium. […]

A further experiment deals with dopaminergic neurons. The experiment in a line: Survival assay, dopaminergic neurons (6-OHDA). The experiment is classed as cell-based, Wistar rat. Particulars: 100 μM 6-OHDA for two hours, further 24 hours with peptide. The protocol: Dopaminergic neurons were prepared from Wistar rat embryos at embryonic day 15 (Charles River, Sulzfeld, Germany or Møllegaard, Denmark). A pregnant rat was sacrificed and the uterus was taken out and kept on ice in Hank's balanced salt solution (HBSS; Gibco, BRL). The ventral part of the mesencephalon was dissected from the embryonic brains, homogenised on ice in Gey's balanced salt solution (GBSS; Gibco, BRL) supplemented with 5 g glucose/l (Sigma-Aldrich) and thereafter trypsinised. The dissociated cells were washed in the presence of DNAse 1 and soybean trypsin inhibitor (Sigma-Aldrich).
Dopaminergic neurons were seeded at a density of 150,000 cells/cm^2 in 24-well cell culture plates coated with poly-D-lysine as described above. The neurons were left to differentiate for six days without or with various concentrations of peptide, after which 6-OHDA was added at a concentration of 100 μM for two hours. A stock solution was prepared by dissolving 6-OHDAto a concentration of 10 mM in 0.1% (w/v) sodium metabisulphite in order to prevent oxidation. After two hours with 6-OHDA, the medium was changed to Neurobasal medium with supplements and peptide, and the cell cultures were further incubated for 24 hours, fixed and immunostained for tyrosine hydroxylase. 98 images for each experimental condition in each individual experiment were automatically video-recorded.

The subject of another experiment is Ig1-2 modules of NCAM. The experiment in a line: Surface plasmon resonance (SPR) binding analysis, NCAM Ig1-2. Particulars: immobilized receptor protein, 25° C., PBS pH 7.4. The protocol:
Analysis of binding was performed employing a BIAcoreX instrument (Biosensor AB, Uppsala, Sweden) at 25° C. using 10 mM pH 7.4 sodium phosphate containing 150 mM NaCl as running buffer (phosphate-buffered saline, PBS). The flow-rate was 5 μl/min. Data were analysed by non-linear curve-fitting using the manufacturer's software. The receptor proteins, e.g. NCAM Ig1-Ig2 and GFR proteins, were immobilized on a sensor chip CM5 using an amine coupling kit (Biosensor AB) as follows: the chip was activated by 20 μl activation solution; the protein was immobilized using 12 μl 20 μg/ml protein in 10 mM sodium phosphate buffer pH 6.0; the chip was blocked by 35 μl blocking solution. Various peptides at the indicated concentrations were injected into the sensor chip. The curve corresponding to the difference between binding to receptor and a blank chip was used for analysis.

For the sequence “ETTYDKILKNLSRNR (listed as Homo sapiens) [G2, GDNF fragment]”, the “neurite outgrowth, overall effect of treatment, neurons grown on NCAM-expressing fibroblasts” value in the experiment on hippocampal neurons (co-culture on NCAM-expressing fibroblasts, GDNF 1-100 ng/ml, peptides 0.1-81 μg/ml) is on record as “overall significant effect”. For the same sequence, the “neurite outgrowth, overall effect of treatment, neurons grown on control fibroblasts” value with hippocampal neurons (co-culture on control fibroblasts, GDNF 1-100 ng/ml, peptides 0.1-81 μg/ml) is given as “overall significant effect”. Further, the “difference between neurite outgrowth on control fibroblasts and on NCAM-expressing fibroblasts across concentrations (one-way ANOVA)” value in the experiment with hippocampal neurons (difference per concentration, expressed as percentage of control) is on record as “mean differences are not all the same”. The “survival of dopaminergic neurons” value in the experiment on dopaminergic neurons was “increases the survival of dopaminergic neurons”. Besides, the “binding to the Ig1-2 modules of NCAM (SPR)” value in the experiment on Ig1-2 modules of NCAM is reported as “Binding”.
